Measured values reported in PubChem BioAssay (NCI).
Several values for one entry are separate records, joined by “and”; a condition that tells them apart may be missing. Equal values may be shown once.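 Following 48 hours of exposure in 96-well plates, responses at five concentrations were used to interpolate endpoints linearly. GI50 is the concentration that inhibits growth by half. At the TGI there is no net growth.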

Assays:
Assay in all cases: DTP human tumour cell line panel, 48 h
SF-295 CNS = tested on: SF-295 CNS
HOP-62 NSCLC = tested on: HOP-62 NSCLC
SF-539 CNS = tested on: SF-539 CNS
A498 renal = tested on: A498 renal
A549 NSCLC = tested on: A549 NSCLC
ACHN renal = tested on: ACHN renal
IGROV1 ovarian = tested on: IGROV1 ovarian
SK-MEL-2 melanoma = tested on: SK-MEL-2 melanoma
MDA-MB-435 = tested on: MDA-MB-435
SW-620 colon = tested on: SW-620 colon

| Structure (SMILES) | TGI (SF-295 CNS) [µM] | TGI (HOP-62 NSCLC) | TGI (SF-539 CNS) [µM] | TGI (A498 renal) | TGI (A549 NSCLC) [µM] | TGI (ACHN renal) | TGI (IGROV1 ovarian) | TGI (SK-MEL-2 melanoma) [µM] | TGI (MDA-MB-435) | TGI (SW-620 colon) | GI50 (HOP-62 NSCLC) | GI50 (A498 renal) [µM] | GI50 (A549 NSCLC) | GI50 (IGROV1 ovarian) | GI50 (SK-MEL-2 melanoma) [µM] | GI50 (SF-295 CNS) | GI50 (SF-539 CNS) [µM] | GI50 (ACHN renal) | GI50 (MDA-MB-435) |
| --- | --- | --- | --- | --- | --- | --- | --- | --- | --- | --- | --- | --- | --- | --- | --- | --- | --- | --- | --- |
| O=c1[nH]c2cc([N+](=O)[O-])c(N/N=C/c3ccc(Cl)cc3Cl)c([N+](=O)[O-])c2[nH]1 | > 100 | > 100 µM | > 100 | 48.7 µM | > 100 | > 100 µM | 78.3 µM | > 100 | > 100 µM | > 100 µM |  |  |  |  |  |  |  |  |  |
| O=c1[nH]c(=O)n(CCOc2ccc(Cl)cc2)cc1Nc1ccccc1 | > 100 | > 100 µM |  | > 100 µM | > 100 | > 100 µM | > 100 µM |  | > 100 µM | > 100 µM |  |  |  |  |  |  |  |  |  |
| C=C1CC2C3C=C(C)C4=CC(=O)CC[C@]4(C)C3CC[C@]2(C)[C@@]1(OC(C)=O)C(C)=O (stereo partly specified) |  | > 100 µM |  | > 100 µM | > 100 |  | > 100 µM | > 100 |  |  | 7.76 µM | > 100 | 2.63 µM | > 100 µM | > 100 |  |  |  |  |
| COc1ccc(N=Cc2ccc(N(CCC#N)S(=O)(=O)c3ccccc3)cc2C)cc1 | > 100 | > 100 µM | > 100 |  | > 100 | > 100 µM | > 100 µM | 67.8 |  | > 100 µM |  |  |  |  |  |  |  |  |  |
| NC(=O)CCSC(CC(=O)c1ccc(Cl)cc1)c1ccc(Cl)cc1 (stereo unspecified) | 78.1 | 93.1 µM | 39.4 | 97.8 µM | > 100 | > 100 µM | 34.8 µM | 69.2 | 39.9 µM | 12.2 µM |  |  |  |  |  |  |  |  |  |
| CCOC(=O)C12CC(C)=C(C)CC1CCCc1ccccc12 (stereo unspecified) | 86.3 | > 100 µM | 85.7 | 62.7 µM | > 100 | 36 µM | > 100 µM | 31.6 | 97.2 µM | 51.8 µM |  |  |  |  |  |  |  |  |  |
| O=CN1CCC23CC(O)CCC2C1Cc1cc(Oc2nnnn2-c2ccccc2)cc(O)c13 (stereo unspecified) | > 100 | > 100 µM | > 100 | > 100 µM | > 100 | > 100 µM | > 100 µM | > 100 | > 100 µM | > 100 µM |  |  |  |  |  |  |  |  |  |
| C[C@H]1CCC/C=C/[C@@H]2C[C@H](O)C[C@H]2[C@H](O)/C=C/C(=O)O1 |  | 9.24 µM and 4.21 µM |  | 0.0821 µM and 0.0376 µM | > 100 | 1.39 µM and 2.36 µM | 1.12 µM and 0.973 µM and 0.645 µM |  |  | 0.0856 µM and 0.118 µM and 0.124 µM | 0.0216 µM and 0.0722 µM and 0.0915 µM | < 0.0149 | < 0.0207 µM and 0.0435 µM and 0.0578 µM | 0.0395 µM and 0.107 µM and 0.0723 µM |  | < 0.0181 µM and 0.0524 µM and 0.12 µM | 0.0321 | 0.0354 µM and 0.0938 µM and 0.0626 µM | < 0.0173 µM and 0.0369 µM and 0.0449 µM |
| CCC1CCC2c3c([nH]c4ccc(C)cc34)C3C(=O)N(N(C)C)C(=O)C3C2C1 (stereo unspecified) | > 33.4 | > 100 µM | 45.5 | > 100 µM | > 100 | > 100 µM | > 100 µM | > 100 | > 33.4 µM | > 100 µM |  |  |  |  |  |  |  |  |  |
| CCOC(=O)/C(=C\NC(C)(C)CO)c1nc2ccccc2[nH]1 | > 100 | > 100 µM | > 100 | > 100 µM | > 100 | 97.5 µM | > 100 µM |  | > 100 µM | > 100 µM |  |  |  |  |  |  |  |  |  |
| CCCC[C@H]1C(=O)O[C@H](C)[C@H](NC(=O)c2cccc(NC=O)c2OC)C(=O)O[C@@H](C)[C@@H]1OC(=O)CC(C)C (tested in a mixture with another compound) | 30.3 | 44.5 µM | 51.9 | 22.4 µM | 23 | 41.4 µM | 15 µM | 29 | 25.6 µM | 64.3 µM |  |  |  |  |  |  |  |  |  |
| O=c1[nH]c(=O)n(CCOCP(=O)(O)O)nc1Br |  | > 100 µM | > 100 | > 100 µM | > 100 | > 100 µM | > 100 µM | > 100 | > 100 µM | > 100 µM |  |  |  |  |  |  |  |  |  |
| N=C(N)c1ccc(N=Nc2c(O)ccc3cc4c(N=Nc5ccc(C(=N)N)cc5)c(O)ccc4cc23)cc1 | > 100 | > 100 µM | > 100 |  | > 100 | > 100 µM | > 100 µM | > 100 | > 100 µM | > 100 µM |  |  |  |  |  |  |  |  |  |
| C/C(=C\C(=N\NC(=N)N)c1ccccc1)c1ccccc1 | 1.87 | 0.7 µM | 1.85 |  | 16.9 | 1.17 µM | 2.11 µM |  | 2.97 µM | 1.73 µM |  |  |  |  |  |  |  |  |  |
| Cc1cn(Cc2cn(CC3OC(n4cc(C)c(=O)[nH]c4=O)CC3O)nn2)c(=O)[nH]c1=O (stereo unspecified) | > 100 | > 100 µM | > 100 | > 100 µM | > 100 | > 100 µM |  | > 100 | > 100 µM | > 100 µM |  |  |  |  |  |  |  |  |  |
| COc1cccc(NC(=O)CC(=O)NN2C(=O)/C(=C/c3ccc(N(CCC#N)CCC#N)cc3)N=C2c2cc([N+](=O)[O-])ccc2Cl)c1 | > 100 | > 100 µM | > 100 |  | > 100 | > 100 µM | > 100 µM | > 100 |  | > 100 µM |  |  |  |  |  |  |  |  |  |
| C=C1c2nc3ccccc3n2C=C(c2ccc(Cl)cc2)N1c1ccc(OCCN2CCCCC2)cc1 | > 45 | > 100 µM | > 100 | > 100 µM | > 100 | > 100 µM | > 45 µM | > 100 | 45 µM and > 100 µM | > 45 µM | > 100 µM | > 100 | > 100 µM |  | > 100 |  |  | > 100 µM | 0.772 µM |
| N#Cc1c(-c2ccc(Cl)cc2)c2c([nH]c1=O)-c1cc([N+](=O)[O-])ccc1CCC2 | 45.3 | 45.9 µM | 35 | 37.7 µM | 82.9 | > 100 µM | 60.3 µM | 43.4 | > 100 µM | > 100 µM |  |  |  |  |  |  |  |  |  |
| O=C1[C@@H](O)[C@@H]2CCCC[C@@]23CCCN13 | > 100 | > 100 µM |  | > 100 µM | > 100 | > 100 µM | > 100 µM | > 100 | > 100 µM |  |  |  |  |  |  |  |  |  |  |
